Source: patent US10022355B2, “Diaryl and arylheteroaryl urea derivatives as modulators of the 5-HT2A serotonin receptor useful for the prophylaxis and treatment of REM sleep behavior disorder” (Axovant Sciences GmbH, priority 2015, dated 2018)
Entries after “also recorded” stand apart in the source; their conditions may differ.

What was measured:
[1] = elderly patients; cited from earlier work
[2] = Completed Phase 1 and Phase 2 clinical studies of nelotanserin (originally for primary insomnia); assay type: in vivo, human
Experimental: Nelotanserin: Nelotanserin (RVT-102), previously known as APD-125, is a potent and selective 5HT2a receptor inverse agonist, and is currently being developed as an oral treatment for REM sleep behavior disorder in patients with DLB. Originally being developed for primary insomnia, seven clinical studies have been completed to date that included five Phase 1 and two Phase 2 studies, and 792 individuals have been exposed to nelotanserin over the dose range of 20 to 160 mg and up to 14 days.

SMILES | side effects [1] | sleep maintenance and consolidation ([2]; Phase 1 and Phase 2 studies) | slow wave sleep ([2]; Phase 1 and Phase 2 studies) | safety and tolerability profile ([2]; five Phase 1 and two Phase 2 studies, 792 individuals exposed, dose range 20 to 160 mg, up to 14 days) | number of sleep phase transitions ([2]; previous clinical studies)
O=C1CN=C(c2ccccc2Cl)c2cc([N+](=O)[O-])ccc2N1 [Clonazepam, clonazepam] | confusion, daytime sedation, and increased risk of falls |  |  |  | 
COc1ccc(NC(=O)Nc2ccc(F)cc2F)cc1-c1c(Br)cnn1C [nelotanserin] |  | improves sleep maintenance and consolidation | increases slow wave sleep | favorable safety and tolerability profile; also recorded: acceptable safety and tolerability profile | reduces the number of sleep phase transitions
